Laboratory results: US7833513B2, “Treatment of Alzheimer's Disease” (Rhode Island Hospital, priority 2004, dated 2010)

Columns and labels:
IGF-I receptor = molecular target: T1, IGF-I receptor (Rattus norvegicus, UniProt P24062); test: ic-STZ ± PPAR agonist: equilibrium and saturation binding to IGF-I receptors in the brain; type: in vivo, Long Evans rat; conditions: for BMAX, IGF-1 receptor saturation binding in brains of treated rats: [125I]-IGF-I tracer, pooled brain membranes, 4 weeks after ic-STZ ± IP PPAR agonist; for IGF-I receptor binding: cerebellum
T1 construct: from tissue; host or cells: rat brain (temporal lobe)
Procedure: (§1) On the same day, sub-sets of the ic-STZ group were given a single intra-peritoneal injection of vehicle (saline), or a PPAR-α (GW7647; 25 ug/Kg), PPAR-δ (L-165,041; 2 μg/Kg), or PPAR-γ (F-L-Leu; 20 μg/Kg) activator (CalBiochem, Carlsbad, Calif.). […] In addition, at 4 weeks of age, memory and learning were evaluated using a Morris Water Maze (R. W. Hickey, M. Akino, S. Strausbaugh, G. M. De Courten-Myers. Use of the Morris water maze and acoustic startle chamber to evaluate neurologic injury after asphyxial arrest in rats. Pediatr Res 39(1) (1996), 77-84). The procedures and use of rats in these experiments were approved by the Lifespan-Rhode Island Hospital IACUC committee.
Membrane protein extracted from fresh frozen brain tissue was used for competitive equilibrium and saturation binding assays. For total binding in equilibrium binding assays, duplicate samples were incubated in 100 μl reactions containing binding buffer (100 mM HEPES, pH 8.0, 118 mM NaCl, 1.2 mM MgSO4, 8.8 mM dextrose, 5 mM KCl, 1% bovine serum albumin) and 100 nCi/ml of [^125I] […] To measure total binding in saturation binding assays, samples from 8-12 brains per group were pooled in equal proportions, and duplicate samples were incubated in 100 μl reactions containing binding buffer and 0.0031 to 1 μCi/ml of [^125I] […] To detect non-specific binding in the equilibrium and saturation binding assays, duplicate reactions were incubated with the same concentrations of radiolabeled tracer plus 0.1 μM unlabeled (cold) competitive ligand. After 16 hours incubation at 4° C., bound radiolabeled tracer was precipitated with bovine gamma globulin and polyethylene glycol 8000. The precipitate (bound ligand) and supernatant (free ligand) fractions were counted in an LKB CompuGamma CS Gamma counter. Specific binding was calculated by subtracting fmols of non-specific binding, i.e. amount bound in the presence of excess cold ligand, from total fmols bound in the absence of unlabeled competitive ligand. GraphPad Prism 4 software (San Diego, Calif.) was used to calculate saturation binding (BMAX) and binding affinity (Kd) for each data set.

learning and memory = test: Morris Water Maze learning and memory test; type: in vivo, Long Evans rat; conditions: for behavior, learning and memory during the training period: 4-week old rats; for mean latency period to arrive at the hidden platform relative to control: Trial Day 4 / final day of testing
Procedure: as §1
Morris Water Maze Behavioral Tests: A standard Morris Water Maze was used to measure learning (R. W. Hickey, M. Akino, S. Strausbaugh, G. M. De Courten-Myers. Use of the Morris water maze and acoustic startle chamber to evaluate neurologic injury after asphyxial arrest in rats. Pediatr Res 39(1) (1996), 77-84). On the first day of testing, the rats were oriented to the water maze and educated about the location of the platform. On the 3 subsequent days of testing, the platform was submerged just below the surface, and the rats were tested for their learning and memory of the platform location by measuring the latency period required to reach and recognize the platform. The rats were allowed 120 seconds to locate the platform, after which they were guided to it. After landing on the platform, the rats were allowed to orient themselves for 15 seconds prior to being rescued. The rats were tested three times each day, with 30 min. intervals between trials. The rats were placed in the same quadrant of the water maze for every trial, except for trials 2 and 3 on the final day testing, when the start locations were randomized to test mastery of platform memory.

[1] = system: brain immunoreactivity (p53, GFAP, phospho-tau, ubiquitin, Aβ, ChAT, AChE); test: ic-STZ model: immunohistochemical staining of brain; type: in vivo, Long Evans rat
From the text: Paraffin-embedded histological sections of pancreas (5 μm thick) and brain (8 μm thick) were stained with hematoxylin and eosin (H&E) and examined for histopathological lesions, i.e., inflammation, necrosis, and islet cell degeneration. […] Paraffin sections of brain were immunostained with monoclonal or polyclonal antibodies to phospho-tau, Aβ, p53, ubiquitin, glial fibrillary acidic protein (GFAP), choline acetyltransferase (ChAT), and acetylcholinesterase (AChE) to characterize the nature of ic-STZ-induced AD-type neurodegeneration. As negative controls for the immunostaining reactions, either the primary antibody was omitted or non-relevant monoclonal antibody to Hepatitis B virus was used in place of the relevant antibody.
Prior to immunostaining, the deparaffinized, re-hydrated tissue sections were sequentially treated with 0.1 mg/ml saponin in phosphate buffered saline (10 mM sodium phosphate, 0.9% NaCl, pH 7.4; PBS), for 20 minutes at room temperature. Endogenous peroxidase activity was quenched by treating the tissue sections with 3% hydrogen peroxide in methanol for 10 minutes, and non-specific binding sites were blocked by a 30-minute incubation in SuperBlock-TBS (Pierce Chemical Co., Rockford, Ill.) at room temperature. After overnight incubation at 4° C. with antibodies diluted to 0.1-1 μg/ml (according to the manufacturer's recommendations), immunoreactivity was detected using rat tissue-pre-adsorbed biotinylated secondary antibodies, avidin biotin horseradish peroxidase complex (ABC) reagents, and diaminobenzidine as the chromogen (Vector Laboratories, Burlingame, Calif.). de la Monte et al., Lab. Invest. 80:1323 (2000). The sections were counterstained with hematoxylin and preserved with mounting medium and coverglass. All sections were examined under code.

[2] = system: cerebral cortex and hippocampus glucose and glycogen metabolism; conditions: adult rats, intracerebroventricular injection; cited from earlier work
[3] = temporal cortex, hippocampus, hypothalamus/thalamus, cerebellar cortex

T1 sequence (P24062 31-737 limits assumed): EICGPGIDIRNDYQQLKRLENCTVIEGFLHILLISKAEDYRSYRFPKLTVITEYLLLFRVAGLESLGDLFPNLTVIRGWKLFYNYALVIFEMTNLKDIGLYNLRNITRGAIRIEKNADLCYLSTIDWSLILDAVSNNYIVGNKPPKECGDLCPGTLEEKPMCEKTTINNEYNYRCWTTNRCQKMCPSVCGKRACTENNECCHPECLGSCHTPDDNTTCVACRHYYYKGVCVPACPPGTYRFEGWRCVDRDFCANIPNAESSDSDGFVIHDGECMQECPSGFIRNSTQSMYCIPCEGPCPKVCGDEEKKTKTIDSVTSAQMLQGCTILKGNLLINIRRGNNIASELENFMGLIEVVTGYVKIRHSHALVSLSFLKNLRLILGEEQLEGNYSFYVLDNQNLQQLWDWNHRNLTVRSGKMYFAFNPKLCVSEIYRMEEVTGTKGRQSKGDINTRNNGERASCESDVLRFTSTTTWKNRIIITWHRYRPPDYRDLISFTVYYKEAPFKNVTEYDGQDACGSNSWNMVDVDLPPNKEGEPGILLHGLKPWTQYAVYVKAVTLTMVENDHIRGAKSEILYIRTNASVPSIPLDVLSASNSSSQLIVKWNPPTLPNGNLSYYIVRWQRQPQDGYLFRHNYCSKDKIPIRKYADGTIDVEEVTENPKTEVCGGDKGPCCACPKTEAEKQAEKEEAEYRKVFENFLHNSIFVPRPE
T1 sequence (P24062 742-1370 limits assumed): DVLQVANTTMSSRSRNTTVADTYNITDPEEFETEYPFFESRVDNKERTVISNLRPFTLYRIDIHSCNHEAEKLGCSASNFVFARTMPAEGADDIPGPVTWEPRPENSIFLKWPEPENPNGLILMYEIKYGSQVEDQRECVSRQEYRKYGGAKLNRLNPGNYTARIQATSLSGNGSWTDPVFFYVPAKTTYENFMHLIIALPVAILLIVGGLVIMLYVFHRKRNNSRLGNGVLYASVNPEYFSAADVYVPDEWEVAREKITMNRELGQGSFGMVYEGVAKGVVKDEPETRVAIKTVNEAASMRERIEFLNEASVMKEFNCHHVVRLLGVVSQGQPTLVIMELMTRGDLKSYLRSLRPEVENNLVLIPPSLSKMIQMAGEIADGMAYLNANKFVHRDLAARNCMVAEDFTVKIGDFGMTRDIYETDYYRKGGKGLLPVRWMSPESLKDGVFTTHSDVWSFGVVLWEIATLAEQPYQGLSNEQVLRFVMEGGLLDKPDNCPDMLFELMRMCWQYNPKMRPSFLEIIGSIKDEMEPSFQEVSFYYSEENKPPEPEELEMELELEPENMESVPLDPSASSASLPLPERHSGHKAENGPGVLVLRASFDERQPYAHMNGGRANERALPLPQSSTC

Row | SMILES | BMAX, IGF-1 receptor saturation binding in brains of treated rats (IGF-I receptor) [fmol/mg protein] | behavior, learning and memory during the training period (learning and memory) | mean latency period to arrive at the hidden platform relative to control (learning and memory) | IGF-I receptor binding (IGF-I receptor) | BMAX for IGF-I receptor (in words) vs ic-STZ group (IGF-I receptor; rat, in vivo) | p53 immunoreactivity in brain ([1]; 14- and 21-day post-treatment) | p53 immunoreactivity in brain ([1]; Day 7 post-treatment) | Aβ immunoreactivity ([1]; neurons, vessels, plaque-like deposits) | AChE immunoreactivity ([1]; rat, in vivo) | ChAT immunoreactivity ([1]; rat, in vivo) | GFAP immunoreactivity ([1]; rat, in vivo) | phospho-tau immunoreactivity [1, 3] | ubiquitin immunoreactivity [1, 3] | binding to IGF-I receptors (IGF-I receptor; hypothalamus or cerebellum) | binding to IGF-I receptors (IGF-I receptor; temporal lobe) | mean latency period vs control (learning and memory; first 3 days of testing) | mean latency vs control (learning and memory; fourth day) | learning and memory in Morris Water Maze (learning and memory; rats surviving 4 weeks or longer, preliminary studies) | chronic reduction in glucose and glycogen metabolism [2]
1 | CC(C)(Sc1ccc(CCN(CCCCC2CCCCC2)C(=O)NC2CCCCC2)cc1)C(=O)O [PPAR-α agonist, GW7647] | 0.6361 | delayed learning and impaired memory | significantly higher |  |  |  |  |  |  |  |  |  |  |  |  |  |  |  | 
2 | CC(C)C[C@H](NC(=O)OCC1c2ccccc2-c2ccccc21)C(=O)O [PPAR-γ agonist, F-L-Leu] | 3.123 | delayed learning and impaired memory | significantly higher | significantly increased | increased |  |  |  |  |  |  |  |  |  |  |  |  |  | 
3 | CCCc1c(OCCCOc2ccc(OCC(=O)O)cc2)ccc(C(C)=O)c1O [PPAR-δ agonist, L-165,041] | 0.7399 | no detectable abnormalities in behavior, learning, or memory | no significant difference | significantly increased |  |  |  |  |  |  |  |  |  |  |  |  |  |  | 
4 | CN(N=O)C(=O)NC1C(O)OC(CO)C(O)C1O (stereo not drawn) [STZ] | 1.204 |  |  |  |  | only slightly increased relative to control | prominently increased | increased | increased | decreased | globally increased | increased | increased | not in the hypothalamus or cerebellum | significantly reduced | approximately twice as long as control | no significant differences | striking impairments in learning and memory | 10-30%
